{
  "source": "patent US20240398771A1",
  "about": "“TREATMENT OF SCLERODERMA AND RAYNAUD'S SYNDROME” (Aisa Pharma, Inc., priority 2023, published 2024)",
  "key": {"participants with SSc-RP [1]": {"system": "participants with SSc-RP", "test": "Average duration of weekly RP attacks, all attacks (minutes)", "type": "in vivo, human", "settings": "ITT Population - Part A (Table B-5)", "excerpt": "(§1) The relevant metrics measured by this tool daily are: • Study medication • SSc-RP symptoms (Reporting an attack including duration of attack) • Severity of the attack considering all symptoms of the attack e.g. tingling, numbness, pain, color changes (VAS 0-10 cm scale) • Participant's location at the time of the attack (inside home/outside home) • Selecting symptoms experienced during the attack (tingling, numbness, pain, color changes, other) • Pain rating during the attack (11-point Likert scale) • The RCS based on how much difficulty participants had with Raynaud's today, how many attacks the participant had, and how long they lasted. Participants will also be asked to consider how much pain, numbness, or other symptoms the Raynaud's caused in fingers (including painful sores), and how much the Raynaud's alone affected the use of hands today (VAS 0-10 cm scale).\nThe absolute change in average duration of weekly RP attacks from baseline to the end of each dosing period was and will be a secondary outcome variable. The sponsor-developed participant-informed diary was and will be used to record data. Average duration of weekly RP attacks is defined as the total duration of RP attacks divided by total number of RP attacks within the last 7 days of each dosing period. Total duration of RP attacks during the last 7 days of screening period divided by the total number of RP attacks will be used as baseline for the analysis of all periods. The variable will be calculated similar to frequency data as before."}, "participants with SSc-RP [2]": {"system": "participants with SSc-RP", "test": "Average daily Raynaud's Condition Score (RCS)", "type": "in vivo, human", "design": "key to Average Daily RCS: Baseline, Mean / Average Daily RCS: Baseline, Median: daily RCS on VAS 0-10 cm scale", "settings": "excluding outliers, ITT Part A", "excerpt": "as §1\nThe RCS is based on how much difficulty participants had with Raynaud's today, how many attacks the participant had, and how long they lasted. In addition participants were and will be asked to consider how much pain, numbness, or other symptoms the Raynaud's caused in fingers (including painful sores), and how much the Raynaud's along affected the use of hand today (VAS 0-10 cm scale).\nThe absolute change in average daily RCS from baseline to the end of each dosing period was and will be a secondary outcome variable. The sponsor-developed participant-informed diary has been and will be used to record data. The average daily RCS is defined as the total RCS divided by the number of days with available diary data of each dosing period. Total RCS during screening period divided by the number of days with available data will be used as baseline for the analysis of all periods. If there are multiple daily RCS scores, the latest daily RCS will be used. The variable will be calculated similar to frequency data as before."}, "[3]": {"settings": "last 7 days of dosing period, listed as Cilnidipine 20 mg"}, "[4]": {"settings": "last 7 days of dosing period, listed as Pooled Cilnidipine"}, "[5]": {"settings": "last 7 days of screening period, listed as Cilnidipine 10 mg"}, "[6]": {"settings": "last 7 days of screening period, listed as Cilnidipine 20 mg"}, "[7]": {"settings": "last 7 days of screening period, listed as Pooled Cilnidipine"}, "[8]": {"settings": "Pooled Cilnidipine 20 mg and Cilnidipine 20 mg + Tadalafil 5 mg"}},
  "data": [
    {"compound": "COCCOC(=O)C1=C(C)NC(C)=C(C(=O)OC/C=C/c2ccccc2)C1c1cccc([N+](=O)[O-])c1", "note": "(centres unmarked) [Cilnidipine, 1,4-dihydro-2,6-dimethyl,4-(3-nitrophenyl)-3,5-pyridinedicarboxylic acid 2-methoxyethyl (2 E)-3-phenyl-2-propenyl ester]", "values": [
      {"measurement": "Average Duration of weekly RP attacks (All Attacks)", "setting": "participants with SSc-RP [1]; [3]", "result": 3.0, "unit": "min"},
      {"measurement": "Average Duration of weekly RP attacks (All Attacks), Max", "setting": "participants with SSc-RP [1]; [3]", "result": 30.5, "unit": "min"},
      {"measurement": "Average Duration of weekly RP attacks (All Attacks), Q1", "setting": "participants with SSc-RP [1]; [3]", "result": 3.00, "unit": "min"},
      {"measurement": "Average duration of weekly RP attacks (All Attacks), Change from Baseline", "setting": "participants with SSc-RP [1]; [3]", "result": -7.6, "unit": "min"},
      {"measurement": "Average duration of weekly RP attacks (All Attacks), Change from Baseline, Max", "setting": "participants with SSc-RP [1]; [3]", "result": 5.5, "unit": "min"},
      {"measurement": "Average duration of weekly RP attacks (All Attacks), Change from Baseline, Q3", "setting": "participants with SSc-RP [1]; [3]", "result": 5.45, "unit": "min"},
      {"measurement": "Average duration of weekly RP attacks (All Attacks), Percent Change from Baseline, Max", "setting": "participants with SSc-RP [1]; [3]", "result": 21.8, "unit": "%"},
      {"measurement": "Average duration of weekly RP attacks (All Attacks), Percent Change from Baseline, Min", "setting": "participants with SSc-RP [1]; [3]", "result": "−71.8", "unit": "%"},
      {"measurement": "Average duration of weekly RP attacks (All Attacks), Percent Change from Baseline, Q1", "setting": "participants with SSc-RP [1]; [3]", "result": "−71.76", "unit": "%"},
      {"measurement": "Average duration of weekly RP attacks (All Attacks), Percent Change from Baseline, Q3", "setting": "participants with SSc-RP [1]; [3]", "result": 21.82, "unit": "%"},
      {"measurement": "Average Duration of weekly RP attacks (All Attacks)", "setting": "participants with SSc-RP [1]; [4]", "result": 3.0, "unit": "min"},
      {"measurement": "Average Duration of weekly RP attacks (All Attacks), Max", "setting": "participants with SSc-RP [1]; [4]", "result": 31.5, "unit": "min"},
      {"measurement": "Average Duration of weekly RP attacks (All Attacks), Q1", "setting": "participants with SSc-RP [1]; [4]", "result": 3.00, "unit": "min"},
      {"measurement": "Average duration of weekly RP attacks (All Attacks), Change from Baseline", "setting": "participants with SSc-RP [1]; [4]", "result": -8.5, "unit": "min"},
      {"measurement": "Average duration of weekly RP attacks (All Attacks), Change from Baseline, Max", "setting": "participants with SSc-RP [1]; [4]", "result": 5.5, "unit": "min"},
      {"measurement": "Average duration of weekly RP attacks (All Attacks), Change from Baseline, Median", "setting": "participants with SSc-RP [1]; [4]", "result": -7.63, "unit": "min"},
      {"measurement": "Average duration of weekly RP attacks (All Attacks), Change from Baseline, Q1", "setting": "participants with SSc-RP [1]; [4]", "result": -8.48, "unit": "min"},
      {"measurement": "Average duration of weekly RP attacks (All Attacks), Change from Baseline, Q3", "setting": "participants with SSc-RP [1]; [4]", "result": 5.45, "unit": "min"},
      {"measurement": "Average duration of weekly RP attacks (All Attacks), Percent Change from Baseline, Max", "setting": "participants with SSc-RP [1]; [4]", "result": 21.8, "unit": "%"},
      {"measurement": "Average duration of weekly RP attacks (All Attacks), Percent Change from Baseline, Min", "setting": "participants with SSc-RP [1]; [4]", "result": "−71.8", "unit": "%"},
      {"measurement": "Average duration of weekly RP attacks (All Attacks), Percent Change from Baseline, Q1", "setting": "participants with SSc-RP [1]; [4]", "result": "−71.76", "unit": "%"},
      {"measurement": "Average duration of weekly RP attacks (All Attacks), Percent Change from Baseline, Q3", "setting": "participants with SSc-RP [1]; [4]", "result": 21.82, "unit": "%"},
      {"measurement": "Average duration of weekly RP attacks (All Attacks), Baseline, Max", "setting": "participants with SSc-RP [1]; [5]", "result": "40.0, 40.0 minutes"},
      {"measurement": "Average duration of weekly RP attacks (All Attacks), Baseline, Min", "setting": "participants with SSc-RP [1]; [5]", "result": "40.0, 40.0 minutes"},
      {"measurement": "Average duration of weekly RP attacks (All Attacks), Baseline, Q1", "setting": "participants with SSc-RP [1]; [5]", "result": "40.00, 40.00 minutes"},
      {"measurement": "Average duration of weekly RP attacks (All Attacks), Baseline, Q3", "setting": "participants with SSc-RP [1]; [5]", "result": "40.00, 40.00 minutes"},
      {"measurement": "Average duration of weekly RP attacks (All Attacks), Baseline", "setting": "participants with SSc-RP [1]; [6]", "result": 10.6, "unit": "min"},
      {"measurement": "Average duration of weekly RP attacks (All Attacks), Baseline, Max", "setting": "participants with SSc-RP [1]; [6]", "result": 25.0, "unit": "min"},
      {"measurement": "Average duration of weekly RP attacks (All Attacks), Baseline, Q1", "setting": "participants with SSc-RP [1]; [6]", "result": 10.63, "unit": "min"},
      {"measurement": "Average duration of weekly RP attacks (All Attacks), Baseline, Q3", "setting": "participants with SSc-RP [1]; [6]", "result": 25.00, "unit": "min"},
      {"measurement": "Average duration of weekly RP attacks (All Attacks), Baseline", "setting": "participants with SSc-RP [1]; [7]", "result": 10.6, "unit": "min"},
      {"measurement": "Average duration of weekly RP attacks (All Attacks), Baseline, Max", "setting": "participants with SSc-RP [1]; [7]", "result": 40.0, "unit": "min"},
      {"measurement": "Average duration of weekly RP attacks (All Attacks), Baseline, Mean", "setting": "participants with SSc-RP [1]; [7]", "result": 25.21, "unit": "min"},
      {"measurement": "Average duration of weekly RP attacks (All Attacks), Baseline, Median", "setting": "participants with SSc-RP [1]; [7]", "result": 25.00, "unit": "min"},
      {"measurement": "Average duration of weekly RP attacks (All Attacks), Baseline, Q1", "setting": "participants with SSc-RP [1]; [7]", "result": 10.63, "unit": "min"},
      {"measurement": "Average duration of weekly RP attacks (All Attacks), Baseline, Q3", "setting": "participants with SSc-RP [1]; [7]", "result": 40.00, "unit": "min"},
      {"measurement": "Average Daily RCS: Baseline, Mean", "setting": "participants with SSc-RP [2]; Cilnidipine 10 mg", "result": 2.74},
      {"measurement": "Average Daily RCS: Baseline, Median", "setting": "participants with SSc-RP [2]; Cilnidipine 10 mg", "result": 2.74},
      {"measurement": "Average Daily RCS (dosing period), Mean", "setting": "participants with SSc-RP [2]; Cilnidipine 20 mg", "result": 2.90},
      {"measurement": "Average Daily RCS (dosing period), Median", "setting": "participants with SSc-RP [2]; Cilnidipine 20 mg", "result": 2.90},
      {"measurement": "Average Daily RCS: Baseline, Median", "setting": "participants with SSc-RP [2]; Cilnidipine 20 mg", "result": 3.35},
      {"measurement": "Average Daily RCS: Baseline, Mean", "setting": "participants with SSc-RP [2]; Pooled Cilnidipine 10 mg and Cilnidipine 10 mg + Tadalafil 5 mg", "result": 4.07},
      {"measurement": "Average Daily RCS (dosing period), Mean", "setting": "participants with SSc-RP [2]; [8]", "result": 3.60},
      {"measurement": "Average Daily RCS: Baseline, Mean", "setting": "participants with SSc-RP [2]; [8]", "result": 4.68},
      {"measurement": "Average Daily RCS: Baseline, Median", "setting": "participants with SSc-RP [2]; [8]", "result": 3.74},
      {"measurement": "Average Daily RCS: Baseline, Mean", "setting": "participants with SSc-RP [2]; Pooled Cilnidipine", "result": 3.15},
      {"measurement": "Average Daily RCS: Baseline, Median", "setting": "participants with SSc-RP [2]; Pooled Cilnidipine", "result": 2.80}
    ]}
  ]
}
